Experimental findings from US4087432A, “1H-imidazo(4,5-b)pyridine compounds” (Eli Lilly and Company, priority 1975, dated 1978) are described below.

Details in all cases: 8 lbs/acre
In one test the test system is Velvet Leaf. Put plainly: Postemergent injury rating, velvetleaf. Format: in vivo. The protocol: (§1) Various of the compounds to be employed as active agent in accordance with the present invention were evaluated for preemergent application to various species of plants. In this evaluation, a soil was prepared consisting of one part masonry sand and one part shredded top soil blended together in a cement mixer. One gallon of this soil was placed in a 25 × 35 cm. galvanized flat and was patted down with a bench brush until level. A three-row marker was used to make 21/2 cm. deep furrows in approximately two-fifths of the flat. Crop seeds consisting of four kernels of corn, five cotton seeds and five soybean seeds were placed in these furrows. A four-row template was then placed on the remaining soil and the indicated approximate numbers of each of the following seeds were planted, one species to each section: foxtail (millet), 80-100 seeds; velvetleaf (40-50 seeds); rough pigweed (150-250 seeds); and large crabgrass (100-150 seeds).
(§2) Sufficient soil was added to cover the entire flat. Thus, the weed seeds were covered to a depth of about 6 mm. and the crop seeds were covered to a depth of about 3 cm.
(§3) In assaying the effect of the composition as preemergent herbicides, a flat prepared as above, taken either on the day of planting or on the next day, was placed in a chamber equipped with a turntable and an air exhaust. The herbicidal composition, either a spray-type emulsion or a wettable powder, was applied to the flat with a modified DeVilbiss atomizer hooked to an air source. Twelve and one-half milliliters of the composition under test were applied to each flat either on the day of planting or the succeeding day. Injury ratings and observations as to type of injury were made eleven to twelve days after treatment. The injury rating scale used was as follows:
(§4) 4--death When more than one determination was carried out at a given rate, an average value was calculated for the injury rating. Each compound evaluated was formulated as a spray by one of the following procedures. In one method the particular compound was wetted by grinding in a mortar with one part of polyoxyethylene sorbitan monolaurate. Five hundred parts of water were added slowly to the resultant creamy paste to give an aqueous dispersion with a surfactant concentration of 0.2 percent. This dispersion was entirely satisfactory for spray application. In a second procedure the compound was dissolved in one volume of acetone, and the acetone solution was diluted with nineteen volumes of water containing 0.1 percent of polyoxyethylene sorbitan monolaurate.
(§5) Representative compounds of the present invention were evaluated for postemergent application to plants including corn and several weed species. The evaluation was carried out in accordance with the procedures of Examples 49-52 except that the test solutions were applied about 9-12 days after the preparation and seeding of the flats.

A further test deals with Foxtail. Put plainly: Postemergent injury rating, foxtail. Format: in vivo, foxtail (millet). Also on record: key: injury rating scale, 4 = death. The protocol:
as §1, §2, §3, §4, §5

The subject of another test is Pigweed. Put plainly: Postemergent injury rating, pigweed. In kind it is in vivo, rough pigweed. Also on record: key: injury rating scale, 4 = death. The protocol: as §1, §2, §3, §4, §5
The test system of another test is Crabgrass. Put plainly: Postemergent injury rating, crabgrass. Also on record: key: injury rating scale, 4 = death. Format: in vivo, large crabgrass. The protocol: as §1, §2, §3, §4, §5
The next test concerns Corn. Put plainly: Postemergent injury rating, corn. In kind it is in vivo. Also on record: key: injury rating scale, 4 = death. The protocol: as §1, §2, §3, §4, §5

With `Cc1cnc2nc(C(F)(F)F)n(O)c2c1` [6-methyl-1-hydroxy-2-(trifluoromethyl)-1H-imidazo(4,5-b)pyridine], in the test with Velvet Leaf, the “Injury Rating, Velvet Leaf” value is 1. The “Injury Rating, Foxtail” value with Foxtail is 3. The “Injury Rating, Pigweed” value in the test with Pigweed turned out to be 3. Also, the “Injury Rating, Crabgrass” value with Crabgrass is listed as 3. In addition, the “Injury Rating, Corn” value with Corn was found to be 1.
As to `On1c(C(F)(F)F)nc2nc(Br)c(Cl)c(Br)c21` [5,7-dibromo-6-chloro-1-hydroxy-2-(trifluoromethyl)-1H-imidazo(4,5-b)pyridine], the “Injury Rating, Velvet Leaf” value in the test on Velvet Leaf came out at 3. Moreover, the “Injury Rating, Foxtail” value with Foxtail was found to be 4. Further, in the test on Pigweed, the “Injury Rating, Pigweed” value is on record as 4. Also, the “Injury Rating, Crabgrass” value in the test on Crabgrass amounted to 4. In addition, in the test with Corn, the “Injury Rating, Corn” value is given as 1.
